According to US20100298141A1, “SUBSTITUTED PYRIDINE N-OXIDE HERBICIDES” (E. I. DU PONT DE NEMOURS AND COMPANY, priority 2007, published 2010):

Key:
duck salad = experiment: Test C flooded paddy test; assay type: in vivo, Heteranthera limosa; details: Flood
In short: (§1)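 Flooded 3 cm over soil; compound into paddy water; depth kept constant. Greenhouse 13–15 d.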

johnsongrass = experiment: Test C pre-/postemergence test; assay type: in vivo, Sorghum halepense; details: for Plant response rating, Johnsongrass: 31 g ai/ha, scale 0 to 100 (0 no effect, 100 complete control)
In short: (§2)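 Test chemicals were formulated with surfactant in a non-phytotoxic solvent and sprayed both on freshly planted seeds (preemergence) and on 1- to 4-leaf plants of 2–18 cm (postemergence). Flooded-paddy pots received compound directly into 3 cm of standing water, maintained for the test.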

Italian ryegrass = experiment: Test C pre-/postemergence test; assay type: in vivo, Lolium multiflorum; details: for Plant response rating, Ryegrass, Italian: 31 g ai/ha, scale 0 to 100 (0 no effect, 100 complete control)
In short: as §2

cocklebur = experiment: Test C pre-/postemergence test; assay type: in vivo, Xanthium strumarium
In short: as §2

velvetleaf [1] = experiment: Test C pre-/postemergence test; assay type: in vivo, Abutilon theophrasti; details: for Plant response rating, Velvetleaf: 31 g ai/ha, scale 0 to 100 (0 no effect, 100 complete control)
In short: as §2

woolly cupgrass = experiment: Test C pre-/postemergence test; assay type: in vivo, Eriochloa villosa; details: for Plant response rating, Cupgrass, Woolly: 31 g ai/ha, scale 0 to 100 (0 no effect, 100 complete control)
In short: as §2

wild oat = experiment: Test C pre-/postemergence test; assay type: in vivo, Avena fatua; details: for Plant response rating, Oat, Wild: 31 g ai/ha, scale 0 to 100 (0 no effect, 100 complete control)
In short: as §2

giant foxtail = experiment: Test C pre-/postemergence test; assay type: in vivo, Setaria faberii; details: for Plant response rating, Foxtail, Giant: 31 g ai/ha, scale 0 to 100 (0 no effect, 100 complete control)
In short: as §2

velvetleaf [2] = experiment: Test A pre-/postemergence greenhouse test; assay type: in vivo, Abutilon theophrasti; details: for Velvetleaf plant response rating: 0 to 100 scale; for Plant response rating, Velvetleaf: 0 to 100 scale where 0 is no effect and 100 is complete control
In short: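 Visual injury ratings against untreated controls, taken roughly ten days after treatment in greenhouse. Plants were sprayed postemergence at one- to two-leaf stage (2–10 cm tall); at the same time, seeded loam/sand soil received a directed preemergence spray. Formulation: non-phytotoxic solvent mixture with surfactant.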

barnyardgrass = experiment: Test C flooded paddy test; assay type: in vivo, Echinochloa crus-galli; details: Flood
In short: as §1

corn = experiment: Test C pre-/postemergence test; assay type: in vivo, Zea mays; details: for Plant response rating, Corn: 31 g ai/ha, scale 0 to 100 (0 no effect, 100 complete control)
In short: as §2

downy brome = experiment: Test C pre-/postemergence test; assay type: in vivo, Bromus tectorum; details: for Plant response rating, Bromegrass, Downy: 31 g ai/ha, scale 0 to 100 (0 no effect, 100 complete control)
In short: as §2

soybean = experiment: Test C pre-/postemergence test; assay type: in vivo, Glycine max; details: for Plant response rating, Soybean: 31 g ai/ha, scale 0 to 100 (0 no effect, 100 complete control)
In short: as §2

green foxtail = experiment: Test C pre-/postemergence test; assay type: in vivo, Setaria viridis; details: for Plant response rating, Foxtail, Green: 31 g ai/ha, scale 0 to 100 (0 no effect, 100 complete control)
In short: as §2

blackgrass = experiment: Test C pre-/postemergence test; assay type: in vivo, Alopecurus myosuroides; details: for Plant response rating, Blackgrass: 31 g ai/ha, scale 0 to 100 (0 no effect, 100 complete control)
In short: as §2

catchweed bedstraw = experiment: Test C pre-/postemergence test; assay type: in vivo, Galium aparine; details: for Plant response rating, Galium: 31 g ai/ha, scale 0 to 100 (0 no effect, 100 complete control)
In short: as §2

morningglory = experiment: Test C pre-/postemergence test; assay type: in vivo, Ipomoea coccinea; details: for Plant response rating, Morningglory: 31 g ai/ha, scale 0 to 100 (0 no effect, 100 complete control)
In short: as §2

[3] = 31 g ai/ha, scale 0 to 100 (0 no effect, 100 complete control)
[4] = 62 g ai/ha, scale 0 to 100, 0 no effect, 100 complete control, 13 to 15 days
[5] = 125 g ai/ha, scale 0 to 100, 0 no effect, 100 complete control, 13 to 15 days
[6] = 250 g ai/ha, scale 0 to 100, 0 no effect, 100 complete control, 13 to 15 days
[7] = 62 g ai/ha, Preemergence, scale 0 to 100
[8] = 125 g ai/ha, preemergence, scale 0 (no effect) to 100 (complete control)
[9] = preemergence, 250 g ai/ha, scale 0 (no effect) to 100 (complete control)
[10] = Postemergence, 125 g ai/ha, 0 is no effect, 100 is complete control
[11] = Postemergence, 500 g ai/ha, 0 is no effect, 100 is complete control
[12] = Preemergence, 125 g ai/ha, 0 no effect, 100 complete control
[13] = preemergence, 125 g ai/ha, scale 0 (no effect) to 100 (complete control)

SMILES: Cn1nc(C(F)(F)F)c(C[S+]([O-])c2cc(Br)cc[n+]2[O-])c1Cl (racemic) [Compound 35]
- Plant response rating, Ducksalad (duck salad; [3]): 60
- Plant response rating, Ducksalad (duck salad; [4]): 60
- Plant response rating, Ducksalad (duck salad; [5]): 85
- Plant response rating, Ducksalad (duck salad; [6]): 95
- Johnsongrass plant response rating (johnsongrass; [7]): 90
- Johnsongrass plant response rating (johnsongrass; [8]): 100
- Plant response rating, Johnsongrass (johnsongrass; Preemergence): 50
- Johnsongrass plant response rating (johnsongrass; [9]): 100
- Ryegrass, Italian plant response rating (Italian ryegrass; [7]): 20
- Ryegrass, Italian plant response rating (Italian ryegrass; [8]): 20
- Plant response rating, Ryegrass, Italian (Italian ryegrass; Preemergence): 10
- Ryegrass, Italian plant response rating (Italian ryegrass; [9]): 20
- Cocklebur plant response rating (cocklebur; [7]): 0
- Cocklebur plant response rating (cocklebur; [8]): 0
- Cocklebur plant response rating (cocklebur; [9]): 0
- Velvetleaf plant response rating (velvetleaf [1]; [7]): 100
- Velvetleaf plant response rating (velvetleaf [1]; [8]): 100
- Plant response rating, Velvetleaf (velvetleaf [1]; Preemergence): 55
- Velvetleaf plant response rating (velvetleaf [1]; [9]): 100
- Cupgrass, Woolly plant response rating (woolly cupgrass; [7]): 80
- Cupgrass, Woolly plant response rating (woolly cupgrass; [8]): 85
- Plant response rating, Cupgrass, Woolly (woolly cupgrass; Preemergence): 0
- Cupgrass, Woolly plant response rating (woolly cupgrass; [9]): 100
- Oat, Wild plant response rating (wild oat; [7]): 45
- Oat, Wild plant response rating (wild oat; [8]): 80
- Plant response rating, Oat, Wild (wild oat; Preemergence): 10
- Oat, Wild plant response rating (wild oat; [9]): 90
- Foxtail, Giant plant response rating (giant foxtail; [7]): 60
- Foxtail, Giant plant response rating (giant foxtail; [8]): 75
- Plant response rating, Foxtail, Giant (giant foxtail; Preemergence): 40
- Foxtail, Giant plant response rating (giant foxtail; [9]): 98
- Velvetleaf plant response rating (velvetleaf [2]; [10]): 50
- Velvetleaf plant response rating (velvetleaf [2]; [11]): 60
- Velvetleaf plant response rating (velvetleaf [2]; [12]): 30
- Plant response rating, Velvetleaf (velvetleaf [2]; Preemergence, 500 g ai/ha): 90
- Plant response rating, Barnyardgrass (barnyardgrass; [3]): 0
- Plant response rating, Barnyardgrass (barnyardgrass; [4]): 0
- Plant response rating, Barnyardgrass (barnyardgrass; [5]): 20
- Plant response rating, Barnyardgrass (barnyardgrass; [6]): 40
- Corn plant response rating (corn; [7]): 10
- Corn plant response rating (corn; [8]): 30
- Plant response rating, Corn (corn; Preemergence): 10
- Corn plant response rating (corn; [9]): 65
- Bromegrass, Downy plant response rating (downy brome; [7]): 0
- Bromegrass, Downy plant response rating (downy brome; [8]): 0
- Plant response rating, Bromegrass, Downy (downy brome; Preemergence): 0
- Bromegrass, Downy plant response rating (downy brome; [9]): 30
- Soybean plant response rating (soybean; [7]): 0
- Soybean plant response rating (soybean; [8]): 10
- Plant response rating, Soybean (soybean; Preemergence): 0
- Soybean plant response rating (soybean; [9]): 60
- Foxtail, Green plant response rating (green foxtail; [7]): 80
- Foxtail, Green plant response rating (green foxtail; [8]): 100
- Plant response rating, Foxtail, Green (green foxtail; Preemergence): 0
- Foxtail, Green plant response rating (green foxtail; [9]): 100
- Blackgrass plant response rating (blackgrass; [7]): 0
- Plant response rating, Blackgrass (blackgrass; Preemergence): 0
- Blackgrass plant response rating (blackgrass; [9]): 50
- Galium plant response rating (catchweed bedstraw; [7]): 100
- Galium plant response rating (catchweed bedstraw; [8]): 100
- Plant response rating, Galium (catchweed bedstraw; Preemergence): 0
- Galium plant response rating (catchweed bedstraw; [9]): 100
- Morningglory plant response rating (morningglory; [7]): 0
- Morningglory plant response rating (morningglory; [8]): 80
- Plant response rating, Morningglory (morningglory; Preemergence): 0
- Morningglory plant response rating (morningglory; [9]): 85

SMILES: Cc1cc[n+]([O-])c([S+]([O-])Cc2c(C(F)(F)F)nn(C)c2OCC(F)(F)F)c1 (racemic) [Compound 30]
- Plant response rating, Ducksalad (duck salad; [3]): 65
- Plant response rating, Ducksalad (duck salad; [4]): 75
- Plant response rating, Ducksalad (duck salad; [5]): 100
- Plant response rating, Ducksalad (duck salad; [6]): 100
- Johnsongrass plant response rating (johnsongrass; [7]): 100
- Plant response rating, Johnsongrass (johnsongrass; Preemergence): 85
- Plant response rating (0 to 100), Johnsongrass (johnsongrass; Preemergence, 250 g ai/ha): 100
- Ryegrass, Italian plant response rating (Italian ryegrass; [7]): 70
- Plant response rating, Ryegrass, Italian (Italian ryegrass; Preemergence): 0
- Cocklebur plant response rating (cocklebur; [7]): 0
- Plant response rating, Cocklebur (cocklebur; Preemergence, 31 g ai/ha, scale 0 to 100 (0 no effect, 100 complete control)): 0
- Plant response rating (0 to 100), Cocklebur (cocklebur; Preemergence, 250 g ai/ha): 85
- Cocklebur plant response rating (cocklebur; [13]): 80
- Velvetleaf plant response rating (velvetleaf [1]; [7]): 100
- Plant response rating, Velvetleaf (velvetleaf [1]; Preemergence): 70
- Cupgrass, Woolly plant response rating (woolly cupgrass; [7]): 100
- Plant response rating, Cupgrass, Woolly (woolly cupgrass; Preemergence): 50
- Plant response rating (0 to 100), Cupgrass, Woolly (woolly cupgrass; Preemergence, 250 g ai/ha): 100
- Oat, Wild plant response rating (wild oat; [7]): 60
- Plant response rating, Oat, Wild (wild oat; Preemergence): 10
- Foxtail, Giant plant response rating (giant foxtail; [7]): 100
- Plant response rating, Foxtail, Giant (giant foxtail; Preemergence): 100
- Plant response rating (0 to 100), Foxtail, Giant (giant foxtail; Preemergence, 250 g ai/ha): 100
- Velvetleaf plant response rating (velvetleaf [2]; [10]): 50
- Velvetleaf plant response rating (velvetleaf [2]; [11]): 70
- Velvetleaf plant response rating (velvetleaf [2]; [12]): 90
- Plant response rating, Velvetleaf (velvetleaf [2]; Preemergence, 500 g ai/ha): 100
- Plant response rating, Barnyardgrass (barnyardgrass; [3]): 0
- Plant response rating, Barnyardgrass (barnyardgrass; [4]): 0
- Plant response rating, Barnyardgrass (barnyardgrass; [5]): 20
- Plant response rating, Barnyardgrass (barnyardgrass; [6]): 65
- Corn plant response rating (corn; [7]): 40
- Plant response rating, Corn (corn; Preemergence): 5
- Plant response rating (0 to 100), Corn (corn; Preemergence, 250 g ai/ha): 98
- Corn plant response rating (corn; [13]): 85
- Bromegrass, Downy plant response rating (downy brome; [7]): 0
- Plant response rating, Bromegrass, Downy (downy brome; Preemergence): 0
- Plant response rating (0 to 100), Bromegrass, Downy (downy brome; Preemergence, 250 g ai/ha): 60
- Bromegrass, Downy plant response rating (downy brome; [13]): 60
- Plant response rating, Soybean (soybean; Preemergence): 60
- Foxtail, Green plant response rating (green foxtail; [7]): 100
- Plant response rating, Foxtail, Green (green foxtail; Preemergence): 100
- Plant response rating (0 to 100), Foxtail, Green (green foxtail; Preemergence, 250 g ai/ha): 100
- Blackgrass plant response rating (blackgrass; [7]): 100
- Plant response rating, Blackgrass (blackgrass; Preemergence): 80
- Plant response rating (0 to 100), Blackgrass (blackgrass; Preemergence, 250 g ai/ha): 100
- Blackgrass plant response rating (blackgrass; [13]): 100
- Galium plant response rating (catchweed bedstraw; [7]): 100
- Plant response rating, Galium (catchweed bedstraw; Preemergence): 100
- Plant response rating (0 to 100), Galium (catchweed bedstraw; Preemergence, 250 g ai/ha): 100
- Morningglory plant response rating (morningglory; [7]): 100
- Plant response rating, Morningglory (morningglory; Preemergence): 100
